For experiment [1], the target named is neutral endopeptidase (NEP), purified NEP (E.C.3.4.24.11) (Homo sapiens, UniProt P08473). Put plainly: In vitro investigation of the NEP-inhibitory effect (hydrolytic degradation of met-enkephalin). The format is biochemical. The following applies: substrate met-enkephalin, 37° C., pH 7.4. On the procedure:
2. In vitro investigation of the NEP-inhibitory effect of the substances and determination of the affinity of the substance molecules for the enzyme molecule. […] The Ki (inhibitor constant) of each substance was determined as a measure of its inhibitory activity. The Ki of a test substance with enzyme-inhibiting activity is the dissociation constant for the enzyme/test substance complex or the (enzyme/substrate)--test substance complex and has units of concentration.
To carry out the test, respective 100 μl samples of various incubation solutions containing 10 ng of purified NEP (E.C.3.4.24.11) and in each case different amounts of test substance and of substrate (met-enkephalin)and 50 mM tris buffer (=tris(hydroxymethyl)aminomethane/HCl, pH 7.4) were prepared.
For each test substance, 24 different incubation solutions were prepared with 3 different test substance concentrations respectively combined with met-enkephalin contents of 2, 5, 7, 10, 12, 15, 40 and 100 μm.
In each test, two types of control incubation solutions were also processed, on the one hand enzyme controls which contain no test substance, and on the other hand substrate controls which contain neither enzyme nor test substance.
The incubation solutions were incubated in a shaking water bath at 37° C. for 45 minutes. The enzyme reaction was started after 15 minutes by adding the substrate (metenkephalin) and was stopped at the end of the incubation time by heating at 95° C. for 5 minutes. The stopped incubation solution was then centrifuged at 12,000×g for 3 minutes, and the concentrations of unreacted substrate and of hydrolysis products formed by the enzymatic reaction were determined in the supernatant. For this purpose, samples of each of the respective supernatants were fractionated by HPLC (high-pressure liquid chromatography) on hydrophobized silica gel, and the products of the enzymatic reaction and unreacted substrate were determined by photometry at a wavelength of 205 nm. The HPLC separation was carried out using a column (4.6×250 mm) which contains Encapharm™ 100 RP18 having an average particle size of 5 μm as reversed phase separation material. The solvent flow rate was 1.4 ml/min, and the column was warmed to 40° C. Mobile phase A was 5 mM H3 PO4, pH 2.5, and mobile phase B was acetonitrile +1% 5 mM H3 PO4, pH 2.5.
The Ki for each test substance was calculated in a known manner from the concentrations of hydrolysis products and unreacted substrate measured in the various samples. […] The example numbers indicated in Table B refer to the following preparation examples.

For experiment [2], the target named is T1, endothelin-converting enzyme (ECE) (Homo sapiens, UniProt P42892).
T1 construct: expressed in transfected cells; host or cells: CHO cells (Chinese hamster ovary), membrane fraction
T1 sequence (P42892 1-770): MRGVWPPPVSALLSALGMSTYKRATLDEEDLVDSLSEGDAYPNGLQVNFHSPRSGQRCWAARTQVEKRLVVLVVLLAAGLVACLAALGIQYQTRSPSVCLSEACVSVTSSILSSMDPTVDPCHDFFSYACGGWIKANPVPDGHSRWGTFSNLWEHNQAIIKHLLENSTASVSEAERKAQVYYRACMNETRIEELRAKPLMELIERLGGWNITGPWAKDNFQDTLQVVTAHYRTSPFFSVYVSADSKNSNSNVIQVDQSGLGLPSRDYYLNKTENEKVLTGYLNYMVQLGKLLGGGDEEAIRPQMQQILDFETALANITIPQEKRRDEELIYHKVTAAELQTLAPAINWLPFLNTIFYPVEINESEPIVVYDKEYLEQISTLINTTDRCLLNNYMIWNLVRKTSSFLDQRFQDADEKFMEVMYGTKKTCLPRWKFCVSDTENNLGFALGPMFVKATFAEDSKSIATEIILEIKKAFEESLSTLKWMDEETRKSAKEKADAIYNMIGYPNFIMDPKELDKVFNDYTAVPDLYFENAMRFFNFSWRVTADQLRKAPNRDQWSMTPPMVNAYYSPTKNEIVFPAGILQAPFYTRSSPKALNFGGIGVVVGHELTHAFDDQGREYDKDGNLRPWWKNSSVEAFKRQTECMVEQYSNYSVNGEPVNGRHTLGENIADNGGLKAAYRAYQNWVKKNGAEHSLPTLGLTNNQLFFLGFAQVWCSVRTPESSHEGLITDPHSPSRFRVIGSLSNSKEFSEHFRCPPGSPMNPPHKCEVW
Description: In vitro investigation of the ECE-inhibitory effect (recombinant human ECE in CHO cell membrane fraction). The format is biochemical. The following applies: 24 μM synthetic peptide substrate, pH 7.0, 37° C., 60 min. On the procedure: 3. In vitro investigations of the ECE-inhibitory effect of the substances.
The IC50 of the substances was determined as a measure of their inhibitory activity. The IC50 of a test substance with enzyme-inhibiting activity is the concentration of the test substance at which 50% of the enzymatic activity of ECE is inhibited.
Preparation of the ECE-containing endothelial cell membrane fraction.
Egg cells from the Chinese hamster (Chinese hamster ovary cells, hereinafter CHO cells) in which there was recombinant expression of human ECE [see Schmidt et al., Federation of European Biochemical Societies Letters 356 238-43 (1994)] were lysed, and the cell membranes were removed by centrifugation at 10,000×g for 10 min. The cell membranes were washed by resuspension and repeated centrifugation three times. The ECE-containing cell membrane fraction was resuspended in 100 mM tris/HCl buffer (tris(hydroxymethyl)aminomethane/HCl, pH 7.0, containing 250 mM NaCl) and stored frozen at -70° C. before the enzyme test.
To carry out the test, respective 100 μl samples of various incubation solutions each containing 5 μg protein from an ECE-containing preparation of endothelial cell membranes and different amounts of test substance and 24 μM substrate (synthetic peptide: H2 N-Asp-Ile-Ala-Trp-Phe-Asn-Thr-Pro-Glu-His-Val-Val-Pro-Tyr-Gly-Leu-Gly-COOH) (SEQ ID NO:1) and 100 mM tris buffer (tris(hydroxymethyl)aminomethane/HCl, pH 7.0, containing 250 mM sodium chloride) were prepared. […]
The incubation solutions were preincubated at 37° C. for 15 min before the substrate was added. […] The hydrolysis products H2N-Asp-Ile-Ala-Trp-COOH (SEQ ID NO:2) and H2 N-Phe-Asn-Thr-Pro-Glu-His-Val-Val-Pro-Tyr-Gly-Leu-Gly-COOH (SEQ ID NO:3) formed from the substrate by the enzymatic reaction were determined with the aid of high-pressure liquid chromatography (HPLC). […] The IC50 was calculated for each test substance in a known manner from the concentrations of hydrolysis products measured in the various samples.

Our source for the Ki and IC50 values is patent publication US5677297A, “Benzazepine-, benzoxazepine- and benzothiazepine-n-acetic acid derivatives, process for their preparation and pharmaceutical compositions containing them” (Solvay Pharmaceuticals GmbH, priority 1995, dated 1997).

Usually Ki stands for a dissociation constant, usually derived from enzyme kinetics or from competition with a known ligand. A lower Ki goes with tighter binding. The term IC50 denotes the point on the concentration scale where inhibition reaches its midpoint.

Sequence of neutral endopeptidase (NEP), purified NEP (E.C.3.4.24.11) (P08473 whole entry): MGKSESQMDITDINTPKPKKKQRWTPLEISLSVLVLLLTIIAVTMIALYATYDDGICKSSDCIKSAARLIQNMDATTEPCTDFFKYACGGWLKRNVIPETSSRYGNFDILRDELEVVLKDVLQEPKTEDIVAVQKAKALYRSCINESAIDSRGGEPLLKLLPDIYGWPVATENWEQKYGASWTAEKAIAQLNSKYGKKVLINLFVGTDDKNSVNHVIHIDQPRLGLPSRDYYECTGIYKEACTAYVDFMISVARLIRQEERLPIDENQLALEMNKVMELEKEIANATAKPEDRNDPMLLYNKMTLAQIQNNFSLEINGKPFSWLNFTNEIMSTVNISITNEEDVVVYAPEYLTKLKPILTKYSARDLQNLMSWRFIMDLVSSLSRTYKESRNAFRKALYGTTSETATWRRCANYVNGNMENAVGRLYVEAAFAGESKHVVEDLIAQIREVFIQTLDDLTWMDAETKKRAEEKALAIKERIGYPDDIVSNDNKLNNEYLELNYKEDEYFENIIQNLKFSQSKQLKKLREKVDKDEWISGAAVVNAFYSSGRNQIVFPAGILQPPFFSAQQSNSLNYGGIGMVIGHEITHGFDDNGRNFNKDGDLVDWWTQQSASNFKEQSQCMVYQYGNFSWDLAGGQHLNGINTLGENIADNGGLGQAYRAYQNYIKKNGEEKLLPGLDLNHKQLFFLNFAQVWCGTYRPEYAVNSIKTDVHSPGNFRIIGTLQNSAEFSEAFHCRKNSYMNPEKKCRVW

With `O=C(O)CN1C(=O)[C@@H](NC(=O)C2(C[C@@H](CCc3ccccc3)C(=O)O)CCCC2)CCc2ccccc21` [Example 8, (3S,2'R)-3-[1-(2'-Carboxy-4'-phenylbutyl)cyclopentane-1-carbonylamino]-2,3,4,5-tetrahydro-2-oxo-1H-1-benzazepine-1-acetic acid], in experiment [1], the Ki was 0.4 nM. Also, the IC50 in experiment [2] was 1290 nM.
